# The source made the active and inactive calls.
# Tests used:
# [1] = target: Intestinal-type alkaline phosphatase (Mus musculus, UniProt P24822); assay: PubChem AID 488875; assay type: functional
# [2] = target: T1, Intestinal-type alkaline phosphatase (Homo sapiens, UniProt P09923); assay: human intestinal alkaline phosphatase activators, dose response, biochemical, luminescence, uHTS hits (AID 463120); assay type: functional
# [3] = target: T1, Intestinal-type alkaline phosphatase; assay: human IAP activators, dose response, biochemical, luminescent, uHTS hits, set 2 (AID 488817); assay type: functional;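 note: potency of activators that raise enzyme activity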
# [4] = target: T2, Alkaline phosphatase, tissue-nonspecific isozyme (Homo sapiens, UniProt P05186); assay: TNAP enzyme activators, dose response, selectivity assay for human IAP activator project, biochemical, TNAP isozyme, human IAP uHTS hits (AID 488886); assay type: functional;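 note: potency of compounds raising TNAP activity as a selectivity check on IAP activators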
# T2 sequence (P05186 whole entry): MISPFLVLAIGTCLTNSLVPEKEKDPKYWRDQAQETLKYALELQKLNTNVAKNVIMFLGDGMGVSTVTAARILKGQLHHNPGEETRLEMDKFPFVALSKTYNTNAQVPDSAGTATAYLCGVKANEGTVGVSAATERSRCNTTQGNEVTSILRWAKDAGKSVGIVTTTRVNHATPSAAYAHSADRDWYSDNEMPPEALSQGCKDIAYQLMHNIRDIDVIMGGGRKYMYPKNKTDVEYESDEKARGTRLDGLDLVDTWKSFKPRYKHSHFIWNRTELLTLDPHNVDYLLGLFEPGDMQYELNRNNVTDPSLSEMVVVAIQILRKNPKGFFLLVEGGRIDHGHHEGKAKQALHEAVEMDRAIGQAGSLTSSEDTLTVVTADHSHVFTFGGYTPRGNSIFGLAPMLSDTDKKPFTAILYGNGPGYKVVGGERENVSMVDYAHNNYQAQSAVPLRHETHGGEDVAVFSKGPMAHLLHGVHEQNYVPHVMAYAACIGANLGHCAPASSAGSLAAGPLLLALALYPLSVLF
# Tumor necrosis factor = Tumor necrosis factor (Homo sapiens, UniProt P01375); assay: TNFa-triggered NF-kB activation inhibitors, SAR follow-up, cell-based, revised (AID 2337); assay type: functional
# [5] = target: Nucleotide-binding oligomerization domain-containing protein 1 (Homo sapiens, UniProt Q9Y239); assay: NOD1 signaling inhibitors, SAR follow-up, revised (AID 2333); assay type: functional
# HEK293 = assay: cells; conditions: Homo sapiens;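 note: cells exposed to compound for 14 hours overnight before viability readout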
# Cytochrome P450 2C9 = Cytochrome P450 2C9 (Homo sapiens, UniProt P11712)
# [6] = inhibitors of cytokine-induced nitrite release, dose response, cell-based, Griess absorbance, INS-1E, dry powder, set 3 (AID 488870); assay type: functional; conditions: Rattus norvegicus
# [7] = insulin promoter down-regulators in MIN6 cells, imaging, high-content screening, mouse beta cells (AID 1628); assay type: functional
# [8] = cytotoxicity in MIN6 insulinoma cells, dose response, cytotoxicity control, cell-based, mouse insulinoma (AID 2122); assay type: functional;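 note: confirmatory high-throughput counterscreen run to flag cytotoxic compounds; mouse MIN-6 beta cells carrying an insulin promoter eGFP reporter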
# T1 sequence (P09923 whole entry): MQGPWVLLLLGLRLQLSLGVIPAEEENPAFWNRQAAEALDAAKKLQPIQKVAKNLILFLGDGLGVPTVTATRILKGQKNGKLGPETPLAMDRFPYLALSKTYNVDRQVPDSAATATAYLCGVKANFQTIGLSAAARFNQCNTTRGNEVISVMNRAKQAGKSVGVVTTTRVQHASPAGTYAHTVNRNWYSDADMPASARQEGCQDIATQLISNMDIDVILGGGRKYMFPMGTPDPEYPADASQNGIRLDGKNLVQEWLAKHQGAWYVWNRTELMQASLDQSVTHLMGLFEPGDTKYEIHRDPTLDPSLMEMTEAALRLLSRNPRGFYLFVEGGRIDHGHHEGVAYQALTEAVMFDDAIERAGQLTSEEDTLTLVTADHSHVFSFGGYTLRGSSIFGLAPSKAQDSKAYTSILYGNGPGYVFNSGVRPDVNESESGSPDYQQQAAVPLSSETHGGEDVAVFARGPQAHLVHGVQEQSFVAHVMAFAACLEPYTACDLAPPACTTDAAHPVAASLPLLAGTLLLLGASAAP
# Chain of Intestinal-type alkaline phosphatase (Mus musculus, UniProt P24822) (P24822 whole entry): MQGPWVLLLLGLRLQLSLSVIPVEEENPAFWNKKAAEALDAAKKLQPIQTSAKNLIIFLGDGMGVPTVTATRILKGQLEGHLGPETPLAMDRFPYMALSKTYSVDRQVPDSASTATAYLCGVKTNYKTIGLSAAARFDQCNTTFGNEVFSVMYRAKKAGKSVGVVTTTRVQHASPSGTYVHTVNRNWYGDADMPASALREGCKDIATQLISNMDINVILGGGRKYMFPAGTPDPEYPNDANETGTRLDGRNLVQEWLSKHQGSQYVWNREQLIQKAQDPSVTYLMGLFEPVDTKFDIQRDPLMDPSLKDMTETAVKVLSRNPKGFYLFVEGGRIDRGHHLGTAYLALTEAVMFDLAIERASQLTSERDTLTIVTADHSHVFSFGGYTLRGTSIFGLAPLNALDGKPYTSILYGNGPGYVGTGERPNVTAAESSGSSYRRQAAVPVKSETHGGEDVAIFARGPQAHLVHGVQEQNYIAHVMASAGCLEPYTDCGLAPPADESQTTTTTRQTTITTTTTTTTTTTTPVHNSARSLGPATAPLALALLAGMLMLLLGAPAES
# Chain of Tumor necrosis factor (P01375 whole entry, the tested form may be a part): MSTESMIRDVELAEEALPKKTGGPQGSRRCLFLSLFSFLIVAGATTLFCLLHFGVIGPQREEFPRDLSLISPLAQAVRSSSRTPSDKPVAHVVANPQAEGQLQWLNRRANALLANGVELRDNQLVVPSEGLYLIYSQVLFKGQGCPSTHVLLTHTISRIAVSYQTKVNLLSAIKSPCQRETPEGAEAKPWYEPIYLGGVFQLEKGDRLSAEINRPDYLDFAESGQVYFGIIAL
# Chain of Cytochrome P450 2C9 (P11712 whole entry): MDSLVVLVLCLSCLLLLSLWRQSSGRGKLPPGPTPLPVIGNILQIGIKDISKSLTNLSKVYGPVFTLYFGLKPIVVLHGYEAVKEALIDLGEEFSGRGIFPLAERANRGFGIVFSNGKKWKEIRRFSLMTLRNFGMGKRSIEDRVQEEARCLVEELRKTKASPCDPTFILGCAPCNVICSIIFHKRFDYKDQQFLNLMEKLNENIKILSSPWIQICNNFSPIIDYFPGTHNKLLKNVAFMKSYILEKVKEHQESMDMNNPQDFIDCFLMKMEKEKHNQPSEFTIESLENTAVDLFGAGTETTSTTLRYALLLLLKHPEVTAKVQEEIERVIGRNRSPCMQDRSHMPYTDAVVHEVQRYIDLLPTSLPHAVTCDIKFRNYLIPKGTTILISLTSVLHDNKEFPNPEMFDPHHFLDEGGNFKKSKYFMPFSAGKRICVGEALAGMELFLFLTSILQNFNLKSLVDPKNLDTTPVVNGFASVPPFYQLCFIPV
# Chain of Nucleotide-binding oligomerization domain-containing protein 1 (Q9Y239 whole entry, the tested form may be a part): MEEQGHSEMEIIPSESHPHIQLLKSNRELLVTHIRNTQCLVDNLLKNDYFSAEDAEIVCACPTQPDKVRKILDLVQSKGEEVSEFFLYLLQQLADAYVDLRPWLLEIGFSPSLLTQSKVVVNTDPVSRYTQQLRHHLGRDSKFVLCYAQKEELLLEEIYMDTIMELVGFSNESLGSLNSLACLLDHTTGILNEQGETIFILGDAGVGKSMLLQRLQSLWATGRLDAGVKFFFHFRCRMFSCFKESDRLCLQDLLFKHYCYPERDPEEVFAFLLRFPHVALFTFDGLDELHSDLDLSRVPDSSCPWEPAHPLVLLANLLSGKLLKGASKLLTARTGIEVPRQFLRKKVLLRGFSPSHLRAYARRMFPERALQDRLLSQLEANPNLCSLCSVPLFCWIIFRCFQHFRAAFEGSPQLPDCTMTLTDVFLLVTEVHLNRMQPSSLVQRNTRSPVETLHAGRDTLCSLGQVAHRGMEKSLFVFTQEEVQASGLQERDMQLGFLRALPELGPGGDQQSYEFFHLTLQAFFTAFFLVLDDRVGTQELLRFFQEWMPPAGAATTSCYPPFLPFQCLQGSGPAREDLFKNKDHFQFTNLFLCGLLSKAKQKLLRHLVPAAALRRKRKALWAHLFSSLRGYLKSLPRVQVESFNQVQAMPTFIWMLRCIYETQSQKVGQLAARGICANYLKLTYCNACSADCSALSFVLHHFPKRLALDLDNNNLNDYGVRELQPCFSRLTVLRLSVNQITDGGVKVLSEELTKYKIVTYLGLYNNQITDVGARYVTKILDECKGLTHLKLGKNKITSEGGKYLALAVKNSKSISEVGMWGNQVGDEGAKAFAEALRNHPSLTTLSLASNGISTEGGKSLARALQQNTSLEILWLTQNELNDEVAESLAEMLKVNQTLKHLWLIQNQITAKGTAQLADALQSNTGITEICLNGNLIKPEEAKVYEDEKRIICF
smiles,measurement,setting,value
COc1cc(NC(=O)NCC2CCN(Cc3ccccc3C)CC2)cc(OC)c1OC,EC50,[1],52.6 µM (active)
same,EC50,[2],70 µM (active)
same,EC50,[3],64.7 µM (active)
same,EC50,[4],73.9 µM (active)
O=C(Nc1ccc(OC(F)(F)F)cc1)c1ccc(CN2CCc3ccccc3C2)cc1,IC50,Tumor necrosis factor,0.0244 µM (active)
same,IC50,[5],< 0.0391 µM (active)
same,IC50,HEK293,> 20 µM (inactive)
Cc1ccc(NC(=O)c2nnn(-c3cc(C)cc(C)c3)c2N)cc1,AC50,Cytochrome P450 2C9,inconclusive
C[C@@H]1CN([C@@H](C)CO)C(=O)c2cccc(NC(=O)Nc3cccc4ccccc34)c2O[C@H]1CN(C)C(=O)Nc1ccc2c(c1)OCO2,AC50,[6],51.5 µM (active)
CN1CCN(Cc2ccc(OCc3ccccc3)cc2)CC1,IC50,[7],3.08 µM (active)
same,IC50,[8],1.8 µM (active)

# — ChEMBL document CHEMBL1201862, “PubChem BioAssay data set” (2004)
